Experimental data: patent US7138361B2, “Herbicidal heterocycles” (E. I. du Pont de Nemours and Company, priority 2000, dated 2006)

Assays:
Format in all cases: in vivo
[1] = system: blackgrass (Alopecurus myosuroides); assay: Test B postemergence; conditions: 13 to 15 days
Method in brief: (§1)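 Pre: seeded pots sprayed, chemical in non-phytotoxic solvent/surfactant mix. Post: plants 2–18 cm, 1–4 leaf, same formulation. Greenhouse 13–15 d; visual % control vs untreated, 0–100 scale.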

[2] = system: Surinam grass (Brachiaria decumbens); assay: Test B postemergence; conditions: 13 to 15 days
Method in brief: as §1

[3] = system: giant foxtail (Setaria faberii); assay: Test B postemergence; conditions: 13 to 15 days
Method in brief: as §1

[4] = system: wheat (Triticum aestivum); assay: Test B postemergence; conditions: 13 to 15 days
Method in brief: as §1

[5] = system: velvetleaf (Abutilon theophrasti); assay: Test B postemergence; conditions: 13 to 15 days
Method in brief: as §1

corn (Zea mays) [6] = assay: Test B postemergence; conditions: 13 to 15 days
Method in brief: as §1

[7] = system: morning glory (Ipomoea hederacea); assay: Test B postemergence; conditions: 13 to 15 days
Method in brief: as §1

[8] = system: barnyardgrass (Echinochloa crus-galli); assay: Test B postemergence; conditions: 13 to 15 days
Method in brief: as §1

[9] = system: pigweed (Amaranthus retroflexus); assay: Test B postemergence; conditions: 13 to 15 days
Method in brief: as §1

[10] = system: smallflower flatsedge (Cyperus difformis); assay: Test C flooded paddy test; conditions: for Flatsedge plant response rating: Flooded Paddy, scale 0 to 100, 0 no effect, 100 complete control; for Plant response rating, Flatsedge: flooded paddy test, scale 0 to 100 (0 no effect, 100 complete control)
Method in brief: (§2)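 Rice and three paddy weeds were grown to the 2-leaf stage under flooded conditions, then treated and kept in a greenhouse for 12–14 days. Response was rated visually against untreated controls on a 0–100 scale, where 100 is complete control.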

rice (Oryza saliva) [11] = assay: Test C flooded paddy test; conditions: for Rice plant response rating: Flooded Paddy, scale 0 to 100, 0 no effect, 100 complete control; for Plant response rating, Rice: flooded paddy test, scale 0 to 100 (0 no effect, 100 complete control)
Method in brief: as §2

[12] = system: duck salad (Heteranthera limosa); assay: Test C flooded paddy test; conditions: for Ducksalad plant response rating: Flooded Paddy, scale 0 to 100, 0 no effect, 100 complete control; for Plant response rating, Ducksalad: flooded paddy test, scale 0 to 100 (0 no effect, 100 complete control)
Method in brief: as §2

[13] = system: barnyardgrass (Echinochloa crus-galli); assay: Test C flooded paddy test; conditions: for Barnyardgrass plant response rating: Flooded Paddy, scale 0 to 100, 0 no effect, 100 complete control; for Plant response rating, Barnyardgrass: flooded paddy test, scale 0 to 100 (0 no effect, 100 complete control)
Method in brief: as §2

Nightshade = assay: Test C preemergence; conditions: Rate 250 g/ha, visual evaluation after 12 to 14 days
[14] = system: cocklebur (Xanthium strumarium); assay: Test B preemergence; conditions: scale 0 to 100, 0 no effect, 100 complete control
Method in brief: as §1

[15] = system: Surinam grass (Brachiaria decumbens); assay: Test B preemergence; conditions: scale 0 to 100, 0 no effect, 100 complete control
Method in brief: as §1

[16] = system: crabgrass (Digitaria sanguinalis); assay: Test B preemergence; conditions: scale 0 to 100, 0 no effect, 100 complete control
Method in brief: as §1

[17] = system: giant foxtail (Setaria faberii); assay: Test B preemergence; conditions: scale 0 to 100, 0 no effect, 100 complete control
Method in brief: as §1

[18] = system: lambsquarters (Chenopodium album); assay: Test B preemergence; conditions: scale 0 to 100, 0 no effect, 100 complete control
Method in brief: as §1

[19] = system: velvetleaf (Abutilon theophrasti); assay: Test B preemergence; conditions: Preemergence, Rate 500 g/ha; scale 0 to 100, 0 no effect, 100 complete control
Method in brief: as §1

rice (Oryza saliva) [20] = assay: Test B preemergence; conditions: Preemergence, Rate 500 g/ha; scale 0 to 100, 0 no effect, 100 complete control
Method in brief: as §1

corn (Zea mays) [21] = assay: Test B preemergence; conditions: scale 0 to 100, 0 no effect, 100 complete control
Method in brief: as §1

[22] = system: morning glory (Ipomoea hederacea); assay: Test B preemergence; conditions: Preemergence, Rate 500 g/ha; scale 0 to 100, 0 no effect, 100 complete control
Method in brief: as §1

[23] = system: barnyardgrass (Echinochloa crus-galli); assay: Test B preemergence; conditions: scale 0 to 100, 0 no effect, 100 complete control
Method in brief: as §1

[24] = system: pigweed (Amaranthus retroflexus); assay: Test B preemergence; conditions: Preemergence, Rate 500 g/ha; scale 0 to 100, 0 no effect, 100 complete control
Method in brief: as §1

Sunflower = assay: Test C preemergence; conditions: Rate 125 g/ha, scale 0 to 100, 0 no effect, 100 complete control
[25] = Rate 125 g/ha, scale 0 (no effect) to 100 (complete control)
[26] = Rate 500 g/ha, scale 0 to 100, 0 is no effect, 100 is complete control

SMILES: O=C1C(n2ccc(C3CCC3)n2)OCN1c1cccc(C(F)(F)F)c1 (stereo not drawn) [Compound 39]
- Plant response rating, Blackgrass [1, 25]: 0
- Plant response rating, Blackgrass [1, 26]: 0
- Plant response rating, Surinam grass [2, 25]: 0
- Plant response rating, Surinam grass [2, 26]: 0
- Plant response rating, Foxtail, Giant [3, 25]: 0
- Plant response rating, Foxtail, Giant [3, 26]: 0
- Plant response rating, Wheat [4, 25]: 0
- Plant response rating, Wheat [4, 26]: 0
- Plant response rating, Velvetleaf [5, 25]: 0
- Plant response rating, Velvetleaf [5, 26]: 0
- Plant response rating, Corn (corn (Zea mays) [6]; [25]): 0
- Plant response rating, Corn (corn (Zea mays) [6]; [26]): 10
- Plant response rating, Morningglory [7, 25]: 0
- Plant response rating, Morningglory [7, 26]: 0
- Plant response rating, Barnyardgrass [8, 25]: 0
- Plant response rating, Barnyardgrass [8, 26]: 100
- Plant response rating, Pigweed [9, 25]: 60
- Plant response rating, Pigweed [9, 26]: 90
- Flatsedge plant response rating ([10]; Rate 250 g/ha): 100
- Flatsedge plant response rating ([10]; Rate 500 g/ha): 100
- Plant response rating, Flatsedge ([10]; Rate 62 g/ha): 90
- Plant response rating, Flatsedge ([10]; Rate 125 g/ha): 100
- Rice plant response rating (rice (Oryza saliva) [11]; Rate 250 g/ha): 0
- Rice plant response rating (rice (Oryza saliva) [11]; Rate 500 g/ha): 70
- Plant response rating, Rice (rice (Oryza saliva) [11]; Rate 62 g/ha): 0
- Plant response rating, Rice (rice (Oryza saliva) [11]; Rate 125 g/ha): 0
- Ducksalad plant response rating ([12]; Rate 250 g/ha): 70
- Ducksalad plant response rating ([12]; Rate 500 g/ha): 100
- Plant response rating, Ducksalad ([12]; Rate 62 g/ha): 20
- Plant response rating, Ducksalad ([12]; Rate 125 g/ha): 60
- Barnyardgrass plant response rating ([13]; Rate 250 g/ha): 100
- Barnyardgrass plant response rating ([13]; Rate 500 g/ha): 100
- Plant response rating, Barnyardgrass ([13]; Rate 62 g/ha): 80
- Plant response rating, Barnyardgrass ([13]; Rate 125 g/ha): 80
- Plant response rating (0 to 100), Nightshade (Nightshade): 0
- Plant response rating, Cocklebur ([14]; Preemergence, Rate 500 g/ha): 0
- Plant response rating, Cocklebur ([14]; preemergence, Rate 125 g/ha): 0
- Plant response rating, Surinam grass ([15]; Preemergence, Rate 500 g/ha): 20
- Plant response rating, Surinam grass ([15]; preemergence, Rate 125 g/ha): 20
- Plant response rating, Crabgrass ([16]; Preemergence, Rate 500 g/ha): 100
- Plant response rating, Crabgrass ([16]; preemergence, Rate 125 g/ha): 0
- Plant response rating, Foxtail, Giant ([17]; Preemergence, Rate 500 g/ha): 100
- Plant response rating, Foxtail, Giant ([17]; preemergence, Rate 125 g/ha): 30
- Plant response rating, Lambsquarters ([18]; Preemergence, Rate 500 g/ha): 100
- Plant response rating, Lambsquarters ([18]; preemergence, Rate 125 g/ha): 100
- Plant response rating, Velvetleaf [19]: 0
- Plant response rating, Rice (rice (Oryza saliva) [20]): 0
- Plant response rating, Corn (corn (Zea mays) [21]; Preemergence, Rate 500 g/ha): 0
- Plant response rating, Corn (corn (Zea mays) [21]; preemergence, Rate 125 g/ha): 0
- Plant response rating, Morningglory [22]: 0
- Plant response rating, Barnyardgrass ([23]; Preemergence, Rate 500 g/ha): 100
- Plant response rating, Barnyardgrass ([23]; preemergence, Rate 125 g/ha): 50
- Plant response rating, Pigweed [24]: 100
- Plant response rating, Sunflower (Sunflower): 0
